The values that follow come from patent publication US20210205292A1, “INHIBITORS OF CREB-CBP INTERACTION FOR TREATMENT OF LEUKEMIA” (The Board of Trustees of the Leland Stanford Junior …, priority 2016, published 2021).

Each structure is given as a SMILES string.

Data set [1] deals with H3K27 acetylation at CREB-bound genes. As to the kind of experiment: Whole-genomic H3K27 histone acetylation analysis in KG-1 cells. It counts as cell-based. Conditions: 5 μM.
For another data set, the system named is CREB target genes. As to the kind of experiment: RT-PCR of CREB target genes in GFP+ bone marrow cells of engrafted NSG mice. As to conditions: 2.3 mg/kg, three once-daily treatments after ten-day engraftment. Format: in vivo, mouse. The procedure: To directly evaluate the effects of Compound A on CREB transcriptional activity in vivo, six NSG mice were injected with 2×10^6 HL-60 expressing GFP. After a ten-day engraftment period, the mice received three once-daily treatments of either 2.3 mg/kg Compound A or DMSO. The mice were then sacrificed and GFP+ bone marrow cells were sorted and analyzed for transcriptional changes in validated CREB target genes. This experiment recapitulated in vitro findings (FIG. 4, panel E).

Data set [2] is described as follows: Plasma pharmacokinetics in NSG mice, quantitative mass spectrometry. Conditions: mouse, ip, 20 mg/kg/day, 20 mg/kg/day IP. It counts as in vivo. As for the experimental part:
FIG. 10, panels A-D, illustrates the non-toxicity and pharmacodynamics of compound Compound A. Panel A) Human AML patient sample cells (#186) were injected (2×10^6 cells) into 8 NSG mice, and mice were then treated with intravenous 0.1% DMSO or 2.3 mg/kg Compound A IV once daily. […] Compound A plasma concentration was measured by quantitative mass spectrometry. […] Panel C). […] Numbers shown are averages of values from 3 mice SE.
To assess the potential in vivo toxicities of Compound A, four groups of five mice not injected with AML cells were treated with 2.3 mg/kg Compound A intravenously daily, or 20, 40 or 60 mg/kg intraperitoneally (IP) daily for 28 days.

The test system of data set [3] is primary AML patient bone marrow samples. The data set is described as follows: Single cell mass cytometry (CyTOF) of primary AML patient samples. Format: cell-based, human. As for the experimental part: These were stained for viability using cisplatin. Cells were fixed with 1.6% PFA (Electron Microscopy Sciences) for 10 min and washed with cell staining media (CSM). Fc receptor block was performed using Human TruStain FcX (Biolegend) following manufacturer's instructions. Cells were stained for surface proteins at room temperature for 30 min. Following staining, cells were washed twice with CSM and permeabilized with methanol pre-cooled to 4° C. for 10 min. Cells were then washed twice and stained for intracellular proteins for 30 min at room temperature. Surface and intracellular staining cocktails are listed in supplementary methods. Cells were washed and stained with 1 mL of 2000× iridium DNA intercalator (diluted 1:5000 in PBS with 1.6% PFA; DVS Sciences) overnight at 4° C. Data were acquired using internal metal isotope bead standards as previously described (Finck et al., “Normalization of mass cytometry data with bead standards.” Cytometry A. 2013; 83(5):483-94). Cell events were acquired at approximately 500 events per second on a CyTOF I (DVS Sciences/Fluidigm). All antibodies were also purchased from DVS Sciences/Fluidigm. Each patient sample was individually normalized to the internal bead standards prior to analysis. […]

Data set [4] deals with Cyclin A1, Cyclin D1, Fra-1, RFC-3. As to the kind of experiment: Expression of CREB-regulated cell cycle genes. Format: cell-based. As for the experimental part:
Cyclin A1 and D1 expression was decreased following 12 hours of treatment, while Fra-1 and RFC-3 expression decreased following 48 hours of treatment.
Mol Cell Biol. 2004; 24(11):4696-709) (FIG. 6, panel C). […] Levels of RFC-3 also decrease following Compound A treatment (FIG. 6, panel C).

For the compound `N#Cc1ccc(NC(=O)c2cc3ccccc3cc2O)cc1` [Compound A, N-(4-cyanophenyl)-3-hydroxy-2-naphthamide], in data set [1], the “CREB-bound genes with decreased H3K27 histone acetylation” value was “Greater than 95%”. In the data set with CREB target genes, the “expression of CREB target genes in vivo (RT-PCR)” value was “significantly reduced expression of all genes shown”. In data set [2], this compound gave a half-life of 4.3 h. In addition, the “cells in S-phase (CyTOF)” value in data set [3] (patient sample 97, CD34+CD38− subpopulation) was < 0.1 % of total. In addition, the “Bcl-2 expression (CyTOF)” value in data set [3] (patient samples 96 and 186, all cell subpopulations, 2 µM, 48 hours) was “reduced Bcl-2 expression”. The “Cyclin A1 and D1 expression” value in data set [4] (12 hours of treatment) is “decreased”. Besides, in data set [4] (48 hours of treatment), the “Fra-1 and RFC-3 expression” value is “decreased”.

The half-life is the time in which the quantity being followed falls by half. Low readings indicate rapid decline, high ones slow decline.
